Data published in patent US20250275976A1, “Methods of Treating Neuroinflammatory Conditions” (Athira Pharma, Inc., priority 2022, published 2025).
Like-named read-outs stand apart in the source and are kept apart here. Square brackets hold non-standard residues; d marks the D form. Peptide text beside a SMILES is read from it. * marks the point of attachment. Hexanoyl = CCCCCC(=O)*; Ahx = NCCCCCC(=O)O

What was measured:
Prp-TDP43^A315T mice = format: in vivo
Procedure: Extranuclear accumulation of TDP-43 protein is a pathological hallmark of a number of neurological diseases. […] Male Prp-TDP43^A315T mice (N=10 mice per group) at 3 weeks of age were administered daily treatments of test compounds. Compound A19 was administered via subcutaneous injection, and Compound 5a and Compound 6a were administered via oral gavage. After 2 months of treatment, plasma samples were collected for cytokine quantification. […] Plasma IL-6 and TNF-α cytokine expression levels were determined using the ELISA method. The submandibular vein was punctured with a lancet and a blood drop was collected directly on a microtube containing EDTA as anticoagulant. Samples were centrifuged for 15 minutes at 1000×g at 4° C. within 20 minutes of collection. 20 μl of plasma supernatant was stored at −20° C. before ELISA analysis.
Plasma was diluted at 1:10 in sterile PBS, and IL-6 and TNF-α quantification was performed in duplicate for each animal using 10 μl of sample per well in 96-well plates using the ELISA method (IL-6: Signa-Aldrich Cat #RAB0308, TNF-α: Sigma-Aldrich Cat #RAB0477). Statistical analysis was carried out by 2-way ANOVA with Dunnett's multiple comparisons post-test with compound-treated samples compared to vehicle-treated samples.

BV2 microglia [1] = test: Quantigene gene expression panel in LPS-stimulated BV2 microglia; format: cell-based; design: key to Significant reduction in target transcript abundance compared to LPS-stimulated BV2 lysates: NLRP3 / Significant reduction in target transcript abundance compared to LPS-stimulated BV2 lysates: IL-1β / Significant reduction in target transcript abundance compared to LPS-stimulated BV2 lysates: IL-6 / Significant reduction in target transcript abundance compared to LPS-stimulated BV2 lysates: iNOS: “NS” indicates a non-significant reduction indicated gene expression compared to LPS-treated cultures; “+” indicates a p value < 0.05; “++” indicates a p value < 0.01; “+++” indicates a p value < 0.001; “+++” indicates a p value < 0.0005 in Dunnett's multiple comparison
Procedure: Changes in gene expression in BV2 cells in response to stimulation with LPS and whether or not these gene expression changes are influenced by treatment with Compound A19-AM was also examined. Inflammatory activation of BV2 microglia was stimulated by pre-treatment with LPS for 45 minutes followed by the addition of test compound for 23.5 hours. Cell cultures were then lysed and processed for expression profiling via bead-based transcript quantification using the Quantigene multiplex gene expression assay (ThermoFisher) and a custom array of target transcripts relevant to inflammatory activation. Expression of a major component of the inflammasome (NLRP3), cytokines (TNF-α, IL-1β, and IL-6), and inducible nitric oxide synthase (iNOS) were assessed. Expression data were quantified as fold change compared to unstimulated cell cultures. Statistical analysis consisted of one-way ANOVA with Dunnett's multiple comparisons post-test compared to LPS-stimulated lysates. Gene expression data is represented in Table 14. Expression of all inflammatory transcript targets were induced by treatment with LPS.

BV2 microglia [2] = test: pAKT in LPS-stimulated BV2 microglia (HTRF); format: cell-based; conditions: for Inflammatory Readout: pAKT (significance of reduction): LPS pre-treatment 45 minutes, compound 1 hour
Excerpt: Microglia are the resident immune cells of the brain and, when activated by pathological conditions, promote broad-spectrum neuroinflammation. When activated by toxic exogenous substances, microglia produce excessive reactive oxygen species (ROS), nitric oxide (NO), and proinflammatory cytokines, which further propagates disease pathogenesis. BV2 microglia were used as an in-vitro cell model to evaluate mechanisms relevant to inflammation in the CNS. Upon activation of TLR4 with LPS, microglia are activated and trigger excessive oxidative stress, a process that is partially mediated by AKT phosphorylation (pAKT) and activation. Microglia activation also leads to a range of changes in gene expression.
Compound A19 active metabolite (Compound A19-AM) was investigated for whether it could reduce the inflammatory effect of LPS in microglia. Inflammatory activation of BV2 microglia cells was stimulated by pre-treatment with LPS for 45 minutes, followed by the addition of test compound for 1 hour (pAKT) or 23.5 hours (NO and gene expression panel). For pAKT measurement, cells were lysed and the pAKT measurement was conducted using the HTRF system. For NO production, culture supernatants were collected and assessed for the presence of nitrite, a primary metabolic product of nitric oxide.
Quantification of nitrite production in cell culture supernatants was accomplished using the Griess Reagent System (Promega, G2930). Measurement of pAKT was assessed utilizing Phospho-AKT 1/2/3 (Ser473) […] Cellular Detection Kit (CisBio, 64AKSPEH).
Data analysis was performed via One-way ANOVA with Dunnett's multiple comparisons test compared to LPS-stimulated, vehicle treated cultures using Prism statistical software (GraphPad). Tabular data indicates significance of reduction in the indicated analyte at the indicated dose.

[3] = 2 months of treatment, doses as in the value

CCC(C)CN1CC2N(Cc3ccc(C(F)(F)F)cc3)CCC(=O)N2[C@@H](C)C1=O (stereo partly drawn) [Compound 5a]
Significant decrease in plasma cytokine expression after 2 months of treatment: IL-6 (Prp-TDP43^A315T mice; 2 mg/kg PO daily): ++++ (++++ = p < 0.0001)
Significant decrease in plasma cytokine expression after 2 months of treatment: TNF-α (Prp-TDP43^A315T mice; 2 mg/kg PO daily): ++++ (++++ = p < 0.0001)
Significant decrease in plasma cytokine expression after 2 months of treatment: IL-6 (Prp-TDP43^A315T mice; 10 mg/kg PO daily): ++++ (++++ = p < 0.0001)
Significant decrease in plasma cytokine expression after 2 months of treatment: TNF-α (Prp-TDP43^A315T mice; 10 mg/kg PO daily): ++++ (++++ = p < 0.0001)
Significant decrease in plasma cytokine expression after 2 months of treatment: IL-6 (Prp-TDP43^A315T mice; 20 mg/kg PO daily): ++++ (++++ = p < 0.0001)
Significant decrease in plasma cytokine expression after 2 months of treatment: TNF-α (Prp-TDP43^A315T mice; 20 mg/kg PO daily): ++++ (++++ = p < 0.0001)
Plasma IL-6 expression (result in words) (Prp-TDP43^A315T mice; [3]): significantly reduced both cytokine levels at doses of 2, 10, and 20 mg/kg
Plasma TNF-α expression (result in words) (Prp-TDP43^A315T mice; [3]): significantly reduced both cytokine levels at doses of 2, 10, and 20 mg/kg

CCCCCC(=O)N[C@@H](Cc1ccc(O)cc1)C(=O)N[C@H](C(=O)NCCCCCC(N)=O)[C@@H](C)CC [Compound A19 active metabolite, dihexa] (Hexanoyl-Tyr-Ile-[Ahx]-NH2)
Expression of IL-1β (result in words) (BV2 microglia [1]; concentrations as in the value): reduced at treatment concentrations of 100 nM and 1 μM
Expression of IL-6 (result in words) (BV2 microglia [1]; concentrations as in the value): reduced at by treatment with 1 μM
Expression of NLRP3 (result in words) (BV2 microglia [1]; concentrations as in the value): significantly reduced by treatment with 100 nM and 1 μM
Expression of TNF-α (result in words) (BV2 microglia [1]; concentrations as in the value): reduced by treatment with A19-AM at all tested concentrations
Expression of iNOS (result in words) (BV2 microglia [1]; concentrations as in the value): significantly reduced by treatment with A19-AM at concentrations of 100 nM and 1 μM
Significant reduction in target transcript abundance compared to LPS-stimulated BV2 lysates: IL-1β (BV2 microglia [1]; dose 1 pM): NS
Significant reduction in target transcript abundance compared to LPS-stimulated BV2 lysates: IL-6 (BV2 microglia [1]; dose 1 pM): NS
Significant reduction in target transcript abundance compared to LPS-stimulated BV2 lysates: NLRP3 (BV2 microglia [1]; dose 1 pM): NS
Significant reduction in target transcript abundance compared to LPS-stimulated BV2 lysates: iNOS (BV2 microglia [1]; dose 1 pM): NS
Significant reduction in target transcript abundance compared to LPS-stimulated BV2 lysates: IL-1β (BV2 microglia [1]; dose 10 pM): NS
Significant reduction in target transcript abundance compared to LPS-stimulated BV2 lysates: IL-6 (BV2 microglia [1]; dose 10 pM): NS
Significant reduction in target transcript abundance compared to LPS-stimulated BV2 lysates: NLRP3 (BV2 microglia [1]; dose 10 pM): NS
Significant reduction in target transcript abundance compared to LPS-stimulated BV2 lysates: iNOS (BV2 microglia [1]; dose 10 pM): NS
Significant reduction in target transcript abundance compared to LPS-stimulated BV2 lysates: IL-1β (BV2 microglia [1]; dose 100 pM): NS
Significant reduction in target transcript abundance compared to LPS-stimulated BV2 lysates: IL-6 (BV2 microglia [1]; dose 100 pM): NS
Significant reduction in target transcript abundance compared to LPS-stimulated BV2 lysates: NLRP3 (BV2 microglia [1]; dose 100 pM): NS
Significant reduction in target transcript abundance compared to LPS-stimulated BV2 lysates: iNOS (BV2 microglia [1]; dose 100 pM): NS
Significant reduction in target transcript abundance compared to LPS-stimulated BV2 lysates: IL-1β (BV2 microglia [1]; dose 100 nM): + (“+” indicates a p value < 0.05)
Significant reduction in target transcript abundance compared to LPS-stimulated BV2 lysates: IL-6 (BV2 microglia [1]; dose 100 nM): NS
Significant reduction in target transcript abundance compared to LPS-stimulated BV2 lysates: NLRP3 (BV2 microglia [1]; dose 100 nM): ++ (“++” indicates a p value < 0.01)
Significant reduction in target transcript abundance compared to LPS-stimulated BV2 lysates: iNOS (BV2 microglia [1]; dose 100 nM): ++ (“++” indicates a p value < 0.01)
Significant reduction in target transcript abundance compared to LPS-stimulated BV2 lysates: IL-1β (BV2 microglia [1]; dose 1 μM): ++ (“++” indicates a p value < 0.01)
Significant reduction in target transcript abundance compared to LPS-stimulated BV2 lysates: IL-6 (BV2 microglia [1]; dose 1 μM): + (“+” indicates a p value < 0.05)
Significant reduction in target transcript abundance compared to LPS-stimulated BV2 lysates: NLRP3 (BV2 microglia [1]; dose 1 μM): + (“+” indicates a p value < 0.05)
Significant reduction in target transcript abundance compared to LPS-stimulated BV2 lysates: iNOS (BV2 microglia [1]; dose 1 μM): ++ (“++” indicates a p value < 0.01)
AKT phosphorylation (result in words) (BV2 microglia [2]; LPS-stimulated BV2): significantly reduced
Inflammatory Readout: pAKT (significance of reduction) (BV2 microglia [2]; dose 0.001 nM): ++ (“++” indicates a p value < 0.005 in Dunnett's multiple comparison)
Inflammatory Readout: pAKT (significance of reduction) (BV2 microglia [2]; dose 1 nM): ++ (“++” indicates a p value < 0.005 in Dunnett's multiple comparison)
